The results in this text go back to patent US20240252488A1 (KOREA RESEARCH INSTITUTE OF CHEMICAL TECHNOLOGY, priority 2020, published 2024).

Assay [1] deals with T1, MLKL (Homo sapiens, UniProt Q8NB16).
T1 sequence (Q8NB16 1-471): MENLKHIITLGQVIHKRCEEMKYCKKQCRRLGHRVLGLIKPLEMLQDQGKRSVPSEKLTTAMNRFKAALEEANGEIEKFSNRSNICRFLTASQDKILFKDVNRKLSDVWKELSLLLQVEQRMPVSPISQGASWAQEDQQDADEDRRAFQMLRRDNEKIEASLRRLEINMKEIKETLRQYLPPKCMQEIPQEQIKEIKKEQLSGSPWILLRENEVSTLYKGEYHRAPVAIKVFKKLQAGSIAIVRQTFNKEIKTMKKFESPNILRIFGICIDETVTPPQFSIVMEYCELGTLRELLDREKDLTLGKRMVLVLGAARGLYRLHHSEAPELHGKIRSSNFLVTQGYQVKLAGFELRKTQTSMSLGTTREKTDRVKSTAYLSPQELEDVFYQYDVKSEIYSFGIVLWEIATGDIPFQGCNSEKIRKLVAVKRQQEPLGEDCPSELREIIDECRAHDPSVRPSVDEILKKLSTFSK
Put plainly: Measurement of binding affinity with MLKL receptor (competitive binding assay, Kd). Set-up: made in house; host or cells: HEK 293 cell line (T7 phage in E. coli BL21-derived host is also described). The essentials: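 Kd from an immobilized-ligand competition format: the DNA-tagged kinase from HEK 293 expression is eluted and quantified by qPCR. Compounds added from 111× DMSO stocks, final DMSO 0.9%.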

Assay [2] addresses T1, MLKL. The experiment in a line: MLKL degradation assay in HepG2 cell line (western blot). The class given is cell-based. Also noted: endogenous in cells; host or cells: HepG2 or HaCaT. Particulars: cell line not given; for Degradation assay (Degradation %) 1 μM: compound 1 μM; for Degradation assay (Degradation %) 10 μM: compound 10 μM. Put shortly:
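After treating HepG2 with test compounds (final 1 μM or 10 μM) for 20-24 h, we lysed cells, equalized protein by BCA and probed MLKL by overnight primary antibody at 4 °C followed by chemiluminescent detection.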
(In general: A western blot detects proteins with antibodies after separation by electrophoresis.)

For assay [3], the system named is FADD−/− Jurkat cells. Put plainly: Necroptosis inhibition assay, TNF-α-induced necroptosis (CellTiter-Glo 2.0). The class given is cell-based, human. Particulars: TNF-α 15 ng/mL; for Necroptosis inhibition assay (Rescue %) 1 μM: compound 1 μM; for Necroptosis inhibition assay (Rescue %) 10 μM: compound 10 μM. Put shortly: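 Necroptosis was triggered by TNF-α at 15 ng/mL final following 30 minutes of compound exposure (0.1, 1 or 10 μM final). Incubation ran 20 to 24 hours at 37° C under 5% CO2; cell ATP was then quantified by luminescence.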
In general terms: Cellular ATP, detected with luciferase, serves as a proxy for viable cell number.

What is called Kd is the free concentration of one partner at which half of the binding sites on the other are occupied at equilibrium, for simple one-to-one binding. A low value points to higher affinity. For `Nc1ncc(-c2cnn(C3CCN(C(=O)CCC4CCN(C(=O)C5CN(c6ccc7nnn(C8CCC(=O)NC8=O)c(=O)c7c6)C5)CC4)CC3)c2)nc1C(=O)O[C@@H](C(=O)Nc1ccc(F)cc1)c1ccccc1` (stereo partly drawn) [TDH-438, (R)-2-((4-fluorophenyl)amino)-2-oxo-1-phenylethyl 3-amino-6-(1-(1-(3-(1-(1-(3-(2,6-dioxopiperidin-3-yl)-4-oxo-3,4-dihydrobenzo[d][1,2,3]triazin-6-yl)azetidine-3-carbonyl)piperidin-4-yl)propanoyl)piperidin-4-yl)-1H-pyrazol-4-yl)pyrazine-2-carboxylate], the dissociation constant (Kd) in assay [1] amounted to 4.5 nM. Besides, in assay [2], the “Degradation assay (Degradation %) 1 μM” value was determined as 86.72% and the “Degradation assay (Degradation %) 10 μM” value came out at 78.91%. For the same molecule, in assay [3] (FADD−/− Jurkat cells), the “Necroptosis inhibition assay (Rescue %) 1 μM” value is listed as 26.37% and the “Necroptosis inhibition assay (Rescue %) 10 μM” value amounted to 13.48%.

`Nc1ncc(-c2cnn(C3CCN(C(=O)CC4CCN(C(=O)C5CN(c6ccc7nnn(C8CCC(=O)NC8=O)c(=O)c7c6)C5)CC4)CC3)c2)nc1C(=O)O[C@@H](C(=O)Nc1ccc(F)cc1)c1ccccc1` (stereo partly drawn) [TDH-406, (R)-2-((4-fluorophenyl)amino)-2-oxo-1-phenylethyl 3-amino-6-(1-(1-(2-(1-(1-(3-(2,6-dioxopiperidin-3-yl)-4-oxo-3,4-dihydrobenzo[d][1,2,3]triazin-6-yl)azetidine-3-carbonyl)piperidin-4-yl)acetyl)piperidin-4-yl)-1H-pyrazol-4-yl)pyrazine-2-carboxylate] yielded a Kd in assay [1] of 6.5 nM. For the same molecule, in assay [2], the “Degradation assay (Degradation %) 1 μM” value is 77.69% and the “Degradation assay (Degradation %) 10 μM” value is given as 60.15%. Also, in assay [3] (FADD−/− Jurkat cells), the “Necroptosis inhibition assay (Rescue %) 1 μM” value is on record as 44.99% and the “Necroptosis inhibition assay (Rescue %) 10 μM” value is 39.97%.

For the molecule `COc1ccc(C(=O)N2CCC(OCCN3CCC(CN4CCC(n5cc(-c6cnc(N)c(C(=O)O[C@@H](C(=O)Nc7ccc(F)cc7)c7ccccc7)n6)cn5)CC4)CC3)CC2)cc1N1CCC(=O)NC1=O` [TDH-506, (R)-2-((4-fluorophenyl)amino)-2-oxo-1-phenylethyl 3-amino-6-(1-(1-((1-(2-((1-(3-(2,4-dioxotetrahydropyrimidin-1(2H)-yl)-4-methoxybenzoyl)piperidin-4-yl)oxy)ethyl)piperidin-4-yl)methyl)piperidin-4-yl)-1H-pyrazol-4-yl)pyrazine-2-carboxylate], the Kd in assay [1] turned out to be 0.6 nM. Moreover, in assay [2], the “Degradation assay (Degradation %) 1 μM” value was 88.53% and the “Degradation assay (Degradation %) 10 μM” value is listed as 88.65%. In assay [3] (FADD−/− Jurkat cells), the “Necroptosis inhibition assay (Rescue %) 1 μM” value amounted to 75.45% and the “Necroptosis inhibition assay (Rescue %) 10 μM” value is on record as 48.09%.

For `Nc1ncc(-c2cnn(C3CCN(C(=O)COC4CCN(C(=O)C5CCN(c6cccc7c6C(=O)N(C6CCC(=O)NC6=O)C7=O)CC5)CC4)CC3)c2)nc1C(=O)O[C@@H](C(=O)Nc1ccc(F)cc1)c1ccccc1` (stereo partly drawn) [TDH-397, (R)-2-((4-fluorophenyl)amino)-2-oxo-1-phenylethyl 3-amino-6-(1-(1-(2-((1-(1-(2-(2,6-dioxopiperidin-3-yl)-1,3-dioxoisoindolin-4-yl)piperidine-4-carbonyl)piperidin-4-yl)oxy)acetyl)piperidin-4-yl)-1H-pyrazol-4-yl)pyrazine-2-carboxylate], in assay [1], binding was characterised by a dissociation constant (Kd) of 2.7 nM. In assay [2], the “Degradation assay (Degradation %) 1 μM” value amounted to 87.39% and the “Degradation assay (Degradation %) 10 μM” value is on record as 79.77%. Besides, in assay [3], the “Necroptosis inhibition assay (Rescue %) 1 μM” value is given as 53.83% and the “Necroptosis inhibition assay (Rescue %) 10 μM” value was 37.24%.

In assay [1], `Cc1ncsc1-c1ccc(CNC(=O)[C@H]2C[C@H](O)CN2C(=O)[C@@H](NC(=O)CN2CCC(CCN3CCC(n4cc(-c5cnc(N)c(C(=O)OC(C(=O)Nc6ccc(F)cc6)c6ccccc6)n5)cn4)CC3)CC2)C(C)(C)C)cc1` (stereo partly drawn) [TDH-312, 2-((4-fluorophenyl)amino)-2-oxo-1-phenylethyl 3-amino-6-(1-(1-(2-(1-(2-(((S)-1-((2R,4S)-4-hydroxy-2-((4-(4-methylthiazol-5-yl)benzyl)carbamoyl)pyrrolidin-1-yl)-3,3-dimethyl-1-oxobutan-2-yl)amino)-2-oxoethyl)piperidin-4-yl)ethyl)piperidin-4-yl)-1H-pyrazol-4-yl)pyrazine-2-carboxylate] had a dissociation constant Kd of 6.9 nM. In addition, in assay [2], the “Degradation assay (Degradation %) 1 μM” value is 59.87% and the “Degradation assay (Degradation %) 10 μM” value came to 40.64%. Besides, the “Necroptosis inhibition assay (Rescue %) 1 μM” value in assay [3] was found to be 75.61%.

On to `Nc1ncc(-c2cnn(C3CCN(CC4CCN(C(=O)C5CCN(c6cccc7c6C(=O)N(C6CCC(=O)NC6=O)C7=O)CC5)CC4)CC3)c2)nc1C(=O)N[C@@H](C(=O)Nc1ccc(F)cc1)c1ccccc1` (stereo partly drawn) [TDH-209, 3-amino-6-(1-(1-((1-(1-(2-(2,6-dioxopiperidin-3-yl)-1,3-dioxoisoindolin-4-yl)piperidine-4-carbonyl)piperidin-4-yl)methyl)piperidin-4-yl)-1H-pyrazol-4-yl)-N-((R)-2-((4-fluorophenyl)amino)-2-oxo-1-phenylethyl)pyrazine-2-carboxamide], for which the dissociation constant Kd in assay [1] was 140 nM. The “Degradation assay (Degradation %) 1 μM” value in assay [2] turned out to be 7.36%. For the same molecule, in assay [3], the “Necroptosis inhibition assay (Rescue %) 1 μM” value is 7.73% and the “Necroptosis inhibition assay (Rescue %) 10 μM” value was 18.12%.

On to `Nc1ncc(-c2cnn(C3CCN(CCC4CCN(C(=O)C5CCN(c6ccc7nnn(C8CCC(=O)NC8=O)c(=O)c7c6)CC5)CC4)CC3)c2)nc1C(=O)OC(C(=O)Nc1ccc(F)cc1)c1ccccc1` (stereo not drawn) [TDH-290, 2-((4-fluorophenyl)amino)-2-oxo-1-phenylethyl 3-amino-6-(1-(1-(2-(1-(1-(3-(2,6-dioxopiperidin-3-yl)-4-oxo-3,4-dihydrobenzo[d][1,2,3]triazin-6-yl)piperidine-4-carbonyl)piperidin-4-yl)ethyl)piperidin-4-yl)-1H-pyrazol-4-yl)pyrazine-2-carboxylate], for which, in assay [1], the Kd amounted to 5.3 nM. For the same molecule, in assay [2], the “Degradation assay (Degradation %) 1 μM” value is reported as 56.44% and the “Degradation assay (Degradation %) 10 μM” value came out at 44.97%. Moreover, in assay [3], the “Necroptosis inhibition assay (Rescue %) 1 μM” value stood at 90.57% and the “Necroptosis inhibition assay (Rescue %) 10 μM” value was 84.93%.
